Columns and labels:
[1] = system: hypoxic-ischemic injury to one cerebral hemisphere; experiment: Hypoxic-ischemic injury in adult rats, IGF-1 vs MK801 (Experiment 1); type: in vivo, Wistar rats; conditions: 50 μg IGF-1 intraventricular and/or 1 mg MK801, 2 hours after hypoxia; histology at 120 hours; controls 65%
Procedure: Adult Wistar rats (68 280-320 g) were prepared under 3% halothane/O2 anaesthesia. The right side carotid artery was ligated. A guide cannula was placed on the dura 8.2 mm anterior from bregma and 1.4 mm from midline on the right. The rats were allowed to recover from anaesthesia for 1 hour and were then placed in an incubator with humidity 85±5% and temperature 34±0.5° C. for 1 hour before hypoxia. Oxygen concentration was reduced and maintained at 6±0.2 O2 % hypoxia for 10 minutes. […] The intraventricular injections of 50 μg IGF-1 or vehicle alone were made into the right lateral ventricle at 1 μl/minute under 1.5%-2% halothane anaesthetic. Rats in each treatment group were infused simultaneously. The rats had free access to food during experiment and were euthanized at 120 hours after hypoxia with overdose of sodium pentobarbitol. Briefly, the brain was perfused in-situ with FAM (Formaldehyde, Acetic Acid, Methanol 1:1:8) then paraffin embedded. The sections were stained with Thionin and Acid Fuchsin. The presence of cortical infarction, defined as a region of tissue death or parenchymal pan-necrosis due to death of glia as well as neurons, was determined via light microscopy by an assessor who was blinded to the experimental groupings.

[2] = system: ischemic brain injury; experiment: Ischemic brain injury in fetal sheep, postischemic seizures and neuronal loss (Experiment 2); type: in vivo
From the text: The objective of this study was to compare the effects of treatment either with IGF-1 (see FIG. 2) and previously published work with the NMDA antagonist […] after an ischemic brain injury on postischemic seizures and neuronal losses in fetal sheep. (Tan et al Ann Neurol 32:677-682 (1992)).
The methods were those of an earlier study (Tan et al Ann Neurol 32:677-682 (1992)). Briefly, late gestation fetal sheep were chronically instrumented to record EEG, nuchal activity and blood pressure, and were then returned to the uterus. Cortical EEG activity nuchal activity and blood pressure were recorded throughout he experiment and the fetal brain subjected to 30 minutes of ischemia. Two hours later they were treated by an infusion of either 1 μg IGF-1 (n=6) or vehicle (artificial CSF) (n=6) into the lateral ventricle. Five days later the brains were fixed and assessed for neuronal loss as described previously (Tan et al Ann Neurol 32:677-682 (1992)).
In all cases the vehicle is the left-hand column and the effects of 1 μg of IGF-1 is on the right.

Compound | incidence of cortical infarction [1] | neuronal rescue (neuronal loss scores) ([2]; 1 μg IGF-1 into lateral ventricle 2 hours after 30 minutes of ischemia, assessed five days later) | postischemic seizure activity ([2]; 1 μg IGF-1 into lateral ventricle 2 hours after ischemia)
C[C@]12N[C@H](Cc3ccccc31)c1ccccc12 [MK801, reference compound] | 50% | – | –
insulin-like growth factor 1 [IGF-1] | 33% | rescued neurons | did not suppress
